The results in this text go back to patent publication US8470872B2, “Compounds with activity at estrogen receptors” (Acadia Pharmaceuticals Inc., priority 2007, dated 2013).

For experiment [1], the target named is T1, ERβ (Homo sapiens, UniProt Q92731). As to the kind of experiment: R-SAT (Receptor Selection and Amplification Technology) functional assay, ERβ. The experiment is classed as cell-based. Further details: expressed in transfected cells; host or cells: NIH-3T3 fibroblasts, transient transfection. To be noted: NIH-3T3 fibroblasts transfected with receptor, na = not active; for EC50: read-out: R-SAT ERβ pEC50 (converted). The text has this: (§1) R-SAT® (Receptor Selection and Amplification Technology) is a cell-based functional assay that allows one to monitor receptor-dependent proliferative responses and has been described elsewhere. The technology has been validated for a number of receptors including GPCRs (Brauner-Osborne and Brann 1996), RTKs (Burstein et al. 1998), cytokine receptors (Piu et al. 2002) and nuclear receptors (Piu et al. 2005; Piu et al. 2006). This process is achieved by partial cellular transformation via loss of contact inhibition and growth factor dependency. Monitoring is achieved by transfecting the cells with a β-galactosidase reporter gene vector whose expression is under a constitutively active promoter. Briefly, NIH-3T3 fibroblasts were plated overnight in 96-wells plates in DMEM 10% calf serum (Hyclone) and grown to 60-70% confluency prior to transfection. Transient transfections were performed using Polyfect (Qiagen) according to manufacturer's instructions. Typically a transfection mix would consist of the receptor and the β-galactosidase expression vectors. Sixteen hours post-transfection, cells were incubated with different doses of ligand in DMEM containing 30% Ultraculture (Hyclone) and 0.4% calf serum (Hyclone) to generate a dose response curve. After 5 days, plates were developed by adding onto the washed cells a solution containing the β-galactosidase substrate o-nitrophenyl-D-galacto pyranoside ONPG (in phosphate-buffered saline with 5% Nonidet P-40 detergent) as described (Piu et al. 2002). Plates were read using a microplate reader at 420 nm. Data from R-SAT® assays were fit to the equation: r=A+B(x/(x+c)), where A=minimum response, B=maximum response minus minimum response, c=EC50, r=response, and x=concentration of ligand. Curves were generated using the curve fitting softwares Excel Fit and GraphPad Prism (San Diego, Calif.).

For experiment [2], the target named is T1, ERβ. As to the kind of experiment: Luciferase reporter gene assay (3*ERE) in HEK293 cells, ERβ. The experiment is classed as cell-based. To be noted: 48 hours with test compounds; for EC50: read-out: Luciferase ERβ pEC50 (converted). As for the experimental part: (§2) HEK293 cells were grown to 70% confluency in DMEM containing 10% calf serum (Hyclone) prior to transfection. On the day of transfection (day 1), expression vectors for ERa or ERb were cotransfected along a construct containing a synthetic 3*ERE (estrogen response element) upstream of the luciferase gene (Panomics), using Polyfect (Qiagen) per manufacturer's recommendations. Sixteen hours post-transfection, cells were incubated in serum free DMEM. On day 3, cells were incubated with the test compounds for 48 hours in serum free DMEM. Cells extracts were then obtained by lyzing and the Luciferase activity measured. All of these steps were performed using a commercially available kit (Promega).
For orientation: In a reporter assay the amount or activity of a reporter protein is the signal.

For experiment [3], the target named is T2, ERα (Homo sapiens, UniProt P03372).
T2 sequence (P03372 1-595): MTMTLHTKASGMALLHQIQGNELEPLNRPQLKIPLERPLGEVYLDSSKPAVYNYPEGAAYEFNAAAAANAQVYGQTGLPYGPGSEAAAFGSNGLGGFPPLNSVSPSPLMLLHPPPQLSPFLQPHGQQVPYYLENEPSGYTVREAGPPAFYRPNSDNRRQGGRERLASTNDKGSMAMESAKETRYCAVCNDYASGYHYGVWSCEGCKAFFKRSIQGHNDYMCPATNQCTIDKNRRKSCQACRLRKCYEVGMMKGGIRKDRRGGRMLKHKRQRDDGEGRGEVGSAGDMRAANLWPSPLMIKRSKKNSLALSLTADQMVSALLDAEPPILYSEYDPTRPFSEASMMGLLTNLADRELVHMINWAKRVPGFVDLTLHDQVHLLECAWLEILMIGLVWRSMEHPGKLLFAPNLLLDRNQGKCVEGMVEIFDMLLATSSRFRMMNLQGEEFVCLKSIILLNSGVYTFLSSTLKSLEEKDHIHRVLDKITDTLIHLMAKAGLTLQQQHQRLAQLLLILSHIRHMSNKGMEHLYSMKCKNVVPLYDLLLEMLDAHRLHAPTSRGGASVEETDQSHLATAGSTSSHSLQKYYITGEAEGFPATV
As to the kind of experiment: R-SAT (Receptor Selection and Amplification Technology) functional assay, ERα. The experiment is classed as cell-based. On the set-up: expressed in transfected cells; host or cells: NIH-3T3 fibroblasts, transient transfection. Particulars: NIH-3T3 fibroblasts transfected with receptor, na = not active; for EC50: read-out: R-SAT ERα pEC50 (converted).
Description: as §1

Experiment [4] has as its target T2, ERα. As to the kind of experiment: Luciferase reporter gene assay (3*ERE) in HEK293 cells, ERα. The experiment is classed as cell-based. Particulars: 48 hours with test compounds; for EC50: read-out: Luciferase ERα pEC50 (converted). As for the experimental part:
as §2

Experiment [5] deals with T1, ERβ. As to the kind of experiment: Competitive 3H-estradiol binding assay, ERβ. Particulars: cytosolic extracts of transfected HEK293T cells, 1 nM 3H-estradiol; read-out: Binding ERβ pKi (converted). The procedure: (§3) HEK293T cells were transiently transfected for 48 hours with expression vectors encoding ERα or ERβ, before being serum starved for 4-6 hours. Cells were then harvested by scraping in ice-cold PBS and subsequently lysed using a cold buffer containing 10 mM Tris pH 7.4, 1 mM EDTA, 1 mM DTT before being subjected to polytron twice for 10 seconds. Cytosolic extracts were isolated by centrifugation at 15000 g for 30 minutes at 4° C. Competitive binding of the test compounds or the estradiol control was performed on 20 uL extract by overnight incubation at 4° C. in a total volume of 100 μL containing 1 nM ^3H-estradiol (Perkin Elmer, Boston, Mass.). The bound fraction was separated from the unbound one by the addition of 100 μL of Dextran coated charcoal, incubated for 10 minutes and subsequent centrifugation at 1000 rpm for 10 minutes. Samples (100 μL per sample) were then analyzed by liquid scintillation. Data was then analyzed using the curve fitting software GraphPad Prism.

The target in experiment [6] is T2, ERα. As to the kind of experiment: Competitive 3H-estradiol binding assay, ERα. Particulars: cytosolic extracts of transfected HEK293T cells, 1 nM 3H-estradiol; read-out: Binding ERα pKi (converted). As for the experimental part: as §3

SMILES strings stand for the structures.

T1 sequence (Q92731 whole entry, species assumed): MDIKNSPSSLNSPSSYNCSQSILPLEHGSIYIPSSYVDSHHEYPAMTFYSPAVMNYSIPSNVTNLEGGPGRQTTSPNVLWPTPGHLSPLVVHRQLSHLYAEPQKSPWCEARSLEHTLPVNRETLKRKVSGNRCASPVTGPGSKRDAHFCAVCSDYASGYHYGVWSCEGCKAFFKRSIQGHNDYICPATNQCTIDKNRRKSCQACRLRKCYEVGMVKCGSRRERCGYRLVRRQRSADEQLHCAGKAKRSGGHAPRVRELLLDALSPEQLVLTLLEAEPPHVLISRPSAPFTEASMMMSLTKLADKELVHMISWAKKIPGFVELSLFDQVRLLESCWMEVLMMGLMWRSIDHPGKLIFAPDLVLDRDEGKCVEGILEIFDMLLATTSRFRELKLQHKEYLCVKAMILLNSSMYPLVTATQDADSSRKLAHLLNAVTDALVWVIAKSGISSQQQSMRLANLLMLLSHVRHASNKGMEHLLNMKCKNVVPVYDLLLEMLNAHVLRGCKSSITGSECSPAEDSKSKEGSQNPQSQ

Take `Oc1ccc(C23CCCCCC2Oc2cccc(F)c23)cc1` (single isomer, unassigned) [Compound 231, 4-(1-Fluoro-6,7,8,9,10,10a-hexahydro-5aH-benzo[b]cyclohepta[d]-furan-10a-yl)phenol]: in experiment [1], the “R-SAT ERβ % Eff” value is given as 91% and the EC50 is 1 nM. Moreover, in experiment [2], the “Luciferase ERβ % Eff” value is 114% and the EC50 is 0.158 nM. In experiment [3], the “R-SAT ERα % Eff” value came out at 86% and the EC50 is 158 nM. In experiment [4], the “Luciferase ERα % Eff” value was determined as 43% and the EC50 was 200 nM.

In the case of `Oc1ccc(C23CCCCCC2Oc2cccc(F)c23)cc1` (single isomer, unassigned) [Compound 232, 4-(1-Fluoro-6,7,8,9,10,10a-hexahydro-5aH-benzo[b]cyclohepta[d]-furan-10a-yl)phenol], in experiment [1], the “R-SAT ERβ % Eff” value was determined as 76% and the EC50 is 10 nM. In addition, in experiment [2], the “Luciferase ERβ % Eff” value is given as 80% and the EC50 was 7.94 nM. In experiment [3], the “R-SAT ERα % Eff” value was determined as 37% and the EC50 is 794 nM. Further, in experiment [4], the “Luciferase ERα % Eff” value worked out at 27% and the EC50 was 1260 nM.

Take `Oc1ccc(C23CCCCCC2Oc2cccc(F)c23)cc1` (single isomer, unassigned) [Compound 982, 4-(1-Fluoro-6,7,8,9,10,10a-hexahydro-5aH-benzo[b]cyclohepta[d]-furan-10a-yl)phenol]: in experiment [1], the “R-SAT ERβ % Eff” value is given as 87% and the EC50 was 0.0501 nM. Also, in experiment [3], the “R-SAT ERα % Eff” value was 108% and the EC50 was 15.8 nM.

Consider `Oc1ccc(C23CCCCC2Oc2cccc(F)c23)cc1` (centres unmarked) [Compound 130, 4-(1-Fluoro-5a,6,7,8,9,9a-hexahydrodibenzo[b,d]furan-9a-yl)phenol], for which the Ki in experiment [5] is 25.1 nM; in experiment [6], 126 nM. In experiment [1], the “R-SAT ERβ % Eff” value was determined as 97%. Further, the EC50 was 6.31 nM in experiment [1], 2.51 nM in experiment [2], 631 nM in experiment [3] and 631 nM in experiment [4]. Also, the “Luciferase ERβ % Eff” value in experiment [2] was 129%. In addition, the “R-SAT ERα % Eff” value in experiment [3] amounted to 70%. Besides, the “Luciferase ERα % Eff” value in experiment [4] is reported as 51%.

Turning to `Oc1ccc(C23CCCCC=C2Oc2cccc(F)c23)cc1` (centres unmarked) [Compound 349, (E)-4-(1-Fluoro-8,9,10,10a-tetrahydro-7H-benzo[b]cyclohepta-[d]furan-10a-yl)phenol], the “R-SAT ERβ % Eff” value in experiment [1] worked out at 24%. For the same compound, the EC50 in experiment [2] was 316 nM. Moreover, the “R-SAT ERα % Eff” value in experiment [3] worked out at 16%. The “Luciferase ERα % Eff” value in experiment [4] stood at 6.4%.

With `Oc1ccc(C23CCCCCC2Oc2c(F)cccc23)cc1` (centres unmarked) [Compound 447, 4-(4-Fluoro-6,7,8,9,10,10a-hexahydro-5aH-benzo[b]cyclohepta-[d]furan-10a-yl)phenol], in experiment [1], the “R-SAT ERβ % Eff” value worked out at 85% and the EC50 is 5.01 nM. For the same compound, in experiment [2], the “Luciferase ERβ % Eff” value was 122% and the EC50 was 0.631 nM. In experiment [3], the “R-SAT ERα % Eff” value worked out at 97% and the EC50 is 398 nM. For the same compound, in experiment [4], the “Luciferase ERα % Eff” value is recorded as 25% and the EC50 is 398 nM.

As for `Oc1ccc(C23CCCCCC2Oc2ccc(F)cc23)cc1` (centres unmarked) [Compound 448, 4-(2-Fluoro-6,7,8,9,10,10a-hexahydro-5aH-benzo[b]cyclohepta[d]-furan-10a-yl)phenol], in experiment [1], the “R-SAT ERβ % Eff” value was 83% and the EC50 is 1.26 nM. In experiment [2], the “Luciferase ERβ % Eff” value is given as 114% and the EC50 is 0.1 nM. Also, in experiment [3], the “R-SAT ERα % Eff” value came to 92% and the EC50 was 398 nM. Further, in experiment [4], the “Luciferase ERα % Eff” value is given as 36% and the EC50 was 316 nM.

In the case of `Oc1ccc(C23CCCCCC2Oc2ccccc23)cc1` (centres unmarked) [Compound 807, 4-(6,7,8,9,10,10a-Hexahydro-5aH-benzo[b]cyclohepta[d]furan-10a-yl)phenol], the Ki is 5.01 nM in experiment [5] and 79.4 nM in experiment [6]. Further, in experiment [1], the “R-SAT ERβ % Eff” value was determined as 99%. For the same compound, the EC50 in experiment [1] is 1.26 nM; in experiment [2], 0.316 nM; in experiment [3], 398 nM; in experiment [4], 316 nM. Further, in experiment [2], the “Luciferase ERβ % Eff” value is 81%. Also, the “R-SAT ERα % Eff” value in experiment [3] came out at 93%. For the same compound, the “Luciferase ERα % Eff” value in experiment [4] is on record as 51%.

Consider `Oc1ccc(C23CCCCC2Oc2ccccc23)cc1` (centres unmarked) [Compound 961, 4-(5a,6,7,8,9,9a-Hexahydrodibenzo[b,d]furan-9a-yl)phenol], for which, in experiment [1], the “R-SAT ERβ % Eff” value is reported as 100% and the EC50 was 10 nM. In experiment [2], the “Luciferase ERβ % Eff” value is reported as 86% and the EC50 is 7.94 nM. Moreover, in experiment [3], the “R-SAT ERα % Eff” value is 95% and the EC50 is 1000 nM. For the same compound, in experiment [4], the “Luciferase ERα % Eff” value came out at 54% and the EC50 was 794 nM.
